PMC10216335, “Voltage-Gated Sodium Channel NaV1.7 Inhibitors with Potent Anticancer Activities in Medullary Thyroid Cancer Cells” (Cancers, 2023)
Counter-ions that a name gives are not always drawn.

Molecular target: T1, NaV1.7 (Rattus norvegicus, UniProt O08562)
T1 construct: gene Scn9a; rat cDNA NaV1.7 (GenBank No. U79568), transiently expressed in HEK-293 cells
Assay: whole-cell patch-clamp, INa block in transfected HEK-293 cells
Format: cell-based

T1 sequence (O08562 whole entry): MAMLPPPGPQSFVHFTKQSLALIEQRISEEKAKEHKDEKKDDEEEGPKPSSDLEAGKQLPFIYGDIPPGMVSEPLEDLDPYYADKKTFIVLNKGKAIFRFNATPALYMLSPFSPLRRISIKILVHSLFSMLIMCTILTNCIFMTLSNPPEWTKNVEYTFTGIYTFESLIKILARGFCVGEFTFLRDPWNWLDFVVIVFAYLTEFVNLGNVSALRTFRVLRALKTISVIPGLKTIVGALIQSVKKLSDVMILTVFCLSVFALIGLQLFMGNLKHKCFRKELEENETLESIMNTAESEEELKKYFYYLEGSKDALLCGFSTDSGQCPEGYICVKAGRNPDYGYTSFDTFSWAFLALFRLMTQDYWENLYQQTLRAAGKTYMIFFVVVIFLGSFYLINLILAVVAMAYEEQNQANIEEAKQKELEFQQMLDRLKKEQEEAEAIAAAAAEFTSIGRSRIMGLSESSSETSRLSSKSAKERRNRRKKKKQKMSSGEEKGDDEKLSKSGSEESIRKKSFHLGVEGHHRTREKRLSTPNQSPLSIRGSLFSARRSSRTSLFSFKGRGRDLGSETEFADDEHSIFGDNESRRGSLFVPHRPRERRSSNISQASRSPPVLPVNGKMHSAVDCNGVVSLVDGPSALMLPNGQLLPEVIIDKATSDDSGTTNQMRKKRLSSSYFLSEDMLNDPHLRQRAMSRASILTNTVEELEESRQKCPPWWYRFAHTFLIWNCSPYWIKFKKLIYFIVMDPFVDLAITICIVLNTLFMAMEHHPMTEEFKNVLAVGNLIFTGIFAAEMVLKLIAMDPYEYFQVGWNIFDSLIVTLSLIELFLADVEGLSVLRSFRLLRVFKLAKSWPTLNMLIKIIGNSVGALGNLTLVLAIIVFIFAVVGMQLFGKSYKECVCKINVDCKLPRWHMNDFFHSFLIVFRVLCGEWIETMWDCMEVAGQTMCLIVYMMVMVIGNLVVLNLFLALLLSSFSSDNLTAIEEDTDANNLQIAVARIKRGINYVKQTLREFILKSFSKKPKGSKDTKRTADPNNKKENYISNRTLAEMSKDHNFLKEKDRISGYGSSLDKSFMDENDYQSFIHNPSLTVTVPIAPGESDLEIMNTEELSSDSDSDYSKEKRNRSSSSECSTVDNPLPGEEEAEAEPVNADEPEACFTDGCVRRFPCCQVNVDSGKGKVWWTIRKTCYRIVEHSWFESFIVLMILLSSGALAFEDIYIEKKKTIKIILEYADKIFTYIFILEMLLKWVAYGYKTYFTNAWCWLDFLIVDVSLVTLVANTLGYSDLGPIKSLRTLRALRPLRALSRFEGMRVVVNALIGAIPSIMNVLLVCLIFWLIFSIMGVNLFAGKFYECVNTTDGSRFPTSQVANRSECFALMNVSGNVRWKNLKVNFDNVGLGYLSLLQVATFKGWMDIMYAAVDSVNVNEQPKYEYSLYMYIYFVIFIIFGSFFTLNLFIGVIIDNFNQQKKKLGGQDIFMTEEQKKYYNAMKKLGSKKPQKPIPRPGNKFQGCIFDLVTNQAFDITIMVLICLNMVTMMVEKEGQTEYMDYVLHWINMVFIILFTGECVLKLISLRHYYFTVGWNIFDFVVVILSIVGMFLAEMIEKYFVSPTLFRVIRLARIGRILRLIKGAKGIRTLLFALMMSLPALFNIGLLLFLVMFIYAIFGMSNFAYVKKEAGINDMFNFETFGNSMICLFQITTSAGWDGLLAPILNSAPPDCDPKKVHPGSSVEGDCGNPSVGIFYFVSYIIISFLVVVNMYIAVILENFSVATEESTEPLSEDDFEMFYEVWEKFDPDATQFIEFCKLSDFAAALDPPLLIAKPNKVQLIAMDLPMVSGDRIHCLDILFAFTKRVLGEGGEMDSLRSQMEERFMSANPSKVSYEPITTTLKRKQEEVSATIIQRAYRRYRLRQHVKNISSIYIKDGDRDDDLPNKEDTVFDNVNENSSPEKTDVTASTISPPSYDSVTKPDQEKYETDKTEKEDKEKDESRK

With `c1ccc(C(CCCNCCCN2CCCCC2)c2ccccc2)cc1` [SV188, 4,4-Diphenylbutyl [3-(piperidin-1-yl)propyl]amine Hydrochloride] the IC50 was 3.6 µM.
